Source: patent US20230174523A1, “BENZENESULFONAMIDE DERIVATIVES AS TRAP1 MODULATORS AND USES THEREOF” (Amathus Therapeutics, Inc., priority 2020, published 2023)

These compounds were tested against T1, TRAP1 enzyme (Homo sapiens, UniProt Q12931) (assay: ADP Glo assay of TRAP1 ATPase activity). Details: TRAP1 ATPase activation, 150 nM Trap1, 20 μM ATP, geometric mean; read-out: ADP GLO DRC: GeoMean EC50.
T1 sequence (Q12931 60-704): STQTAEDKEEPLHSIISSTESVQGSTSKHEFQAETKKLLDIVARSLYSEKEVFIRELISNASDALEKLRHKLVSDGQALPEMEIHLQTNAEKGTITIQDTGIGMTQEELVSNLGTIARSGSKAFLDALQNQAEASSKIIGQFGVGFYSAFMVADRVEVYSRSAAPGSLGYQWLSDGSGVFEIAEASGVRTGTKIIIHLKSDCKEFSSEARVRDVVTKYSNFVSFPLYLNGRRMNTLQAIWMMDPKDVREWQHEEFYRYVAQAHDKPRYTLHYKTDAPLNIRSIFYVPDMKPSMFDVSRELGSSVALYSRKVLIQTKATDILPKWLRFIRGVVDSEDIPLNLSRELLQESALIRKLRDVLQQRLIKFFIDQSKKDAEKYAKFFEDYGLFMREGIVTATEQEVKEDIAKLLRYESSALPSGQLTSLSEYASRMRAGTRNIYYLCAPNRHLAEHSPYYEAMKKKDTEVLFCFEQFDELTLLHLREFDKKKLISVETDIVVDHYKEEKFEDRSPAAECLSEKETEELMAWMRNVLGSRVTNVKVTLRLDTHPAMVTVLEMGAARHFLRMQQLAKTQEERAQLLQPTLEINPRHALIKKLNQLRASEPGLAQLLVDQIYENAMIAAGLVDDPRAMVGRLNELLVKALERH
Assay type: biochemical
Protocol: Potency of test compounds to modulate the ATPase activity of TRAP1 enzyme was evaluated using ADP Glo assay. The assay is based on quantification of the ADP generated from ATP in the ATPase reaction. The assay is performed in two steps: first, after the ATPase reaction, an equal volume of ADP-Glo™ Reagent is added to terminate the ATPase reaction and deplete the remaining ATP. Second, the Kinase Detection Reagent is added to simultaneously convert ADP to ATP and allow the newly synthesized ATP to be measured using a luciferase/luciferin reaction.
All the assays were carried out in a 384-well Proxiplate. The buffer used was 25 mM Pipes pH-7.5, 40 mM KCl, 0.05 mM MgCl2, 0.025% BSA, 0.316 mM EGTA, 0.003% Empigen, 0.01% Igepal. 150 nM Trap1 enzyme was incubated with various concentrations of the test compound (0.79 μM-100 μM) at 37° C. for 30 mins (except in blank wells). 20 μM ATP was added to each well to start the reaction. The plate was spun for 1 min at 1200 rpm and then incubated at 37° C. for 60 mins. 5 μl of ADP Glo reagent was added to all the wells and spun the plate for 1 min at 1200 rpm and kept it on a shaker at ambient temperature for 60 mins. 10 μl of kinase detection mix was added to all the wells and the plate was read for Luminescence at 495 nm. The amount of ADP released was estimated from ATP/ADP standard curve generated at the same experimental conditions. Emax (Maximal percent activation) and EC50 (concentration for half maximal activation) were estimated by fitting the dose response data to a sigmoidal curve fitting equation using Graphpad Prism software V. 8.

First: COc1ccc(NC(=O)c2ccc3cn(C)nc3c2)cc1S(=O)(=O)Nc1c(C)cccc1C [Compound 1362]
Second: COc1ccc(NC(=O)c2ccc3nccnc3c2)cc1S(=O)(=O)Nc1c(C)cccc1C [Compound 1063]
The EC50 of the first is lower: 10 to 20 µM for the first, 20 to 100 µM for the second. The first is the more potent here.

Compared with `Cc1c(Br)cncc1C(=O)Nc1ccc(F)c(S(=O)(=O)Nc2ccc(Cl)cc2)c1` [Compound 826], `Cc1noc(C(C)C)c1C(=O)Nc1ccc(F)c(S(=O)(=O)Nc2ccc(Cl)cc2)c1` [Compound 751] is lower in EC50: 20 to 100 µM for the first, 10 to 20 µM for the second. The second is the more potent here.

Compared with `COc1ccc(NC(=O)c2nn(C)c3c2CCC3)cc1S(=O)(=O)Nc1c(C)cccc1C` [Compound 1010], `COc1ccc(NC(=O)c2cn(C)nc2C(F)F)cc1S(=O)(=O)Nc1c(C)cccc1C` [Compound 1074] is higher in EC50: 10 to 20 µM for the first, 20 to 100 µM for the second. The first is the more potent here.

`COc1ccc(NC(=O)c2cnc(-c3ccccc3C)[nH]2)cc1S(=O)(=O)Nc1ccc(Cl)cc1` [Compound 1971] and `COc1ccc(NC(=O)c2cnc(-c3cccnc3OC)[nH]2)cc1S(=O)(=O)Nc1ccc(Cl)cc1` [Compound 1951] cannot be ordered by EC50: under 10 µM for the first, under 10 µM for the second.

First: COc1ccc(NC(=O)c2cc(F)ccc2OC(F)(F)F)cc1S(=O)(=O)Nc1c(C)cccc1C [Compound 1092]
Second: COc1cnc(Cl)c(C(=O)Nc2ccc(OC)c(S(=O)(=O)Nc3c(C)cccc3C)c2)c1 [Compound 1072]
The EC50 of the first is lower: under 10 µM for the first, 20 to 100 µM for the second.

First: COc1ccc(NC(=O)c2ncc(-c3ccccc3)o2)cc1S(=O)(=O)Nc1ccc(C)nc1F [Compound 1684]
Second: COc1ccc(NC(=O)c2ccn(-c3ccccc3)n2)cc1S(=O)(=O)Nc1c(C)cccc1C [Compound 1071]
The EC50 of the first is higher: 20 to 100 µM for the first, 10 to 20 µM for the second. The second is the more potent here.

First: COc1ccc(NC(=O)c2cccnc2-c2ccccc2C)cc1S(=O)(=O)Nc1c(C)cccc1C [Compound 1053]
Second: COc1ccc(NC(=O)c2cccnc2-c2cc(F)cc(F)c2)cc1S(=O)(=O)Nc1c(C)cccc1C [Compound 1096]
The EC50 of the first is higher: 20 to 100 µM for the first, 10 to 20 µM for the second. The second is the more potent here.

First: COc1ccc(NC(=O)c2cn(Cc3ccccc3)nn2)cc1S(=O)(=O)Nc1c(C)cccc1C [Compound 1265]
Second: COc1ccc(NC(=O)c2ccc3ncccc3c2)cc1S(=O)(=O)Nc1c(C)cccc1C [Compound 1241]
The EC50 of the first is lower: under 10 µM for the first, 10 to 20 µM for the second. The first is the more potent here.

First: COc1ccc(NC(=O)c2cncc(Br)c2C)cc1S(=O)(=O)Nc1c(C)cccc1C [Compound 1107]
Second: COc1ccc(NC(=O)c2cnoc2C2CC2)cc1S(=O)(=O)Nc1c(C)cccc1C [Compound 1160]
The EC50 of the first is lower: 10 to 20 µM for the first, 20 to 100 µM for the second.

`COc1ccc(NC(=O)c2csc(-c3ccccc3)n2)cc1S(=O)(=O)N(CC(O)CO)c1ccc(Cl)cc1` (centres unmarked) [Compound 2404] and `COc1ccc(NC(=O)c2cnn(-c3ccc(Cl)cc3)c2C)cc1S(=O)(=O)Nc1c(C)cccc1C` [Compound 1110] cannot be ordered by EC50: under 10 µM for the first, under 10 µM for the second.

`COc1ccc(NC(=O)c2cccc(N3CCCC3=O)c2)cc1S(=O)(=O)Nc1c(C)cccc1C` [Compound 1123] and `COc1ccc(NC(=O)c2ccc3ncsc3c2)cc1S(=O)(=O)Nc1c(C)cccc1C` [Compound 1233] fall in the same range of EC50: 10 to 20 µM for the first, 10 to 20 µM for the second.

`COc1ccc(NC(=O)c2cnc3ccoc3c2)cc1S(=O)(=O)Nc1c(C)cccc1C` [Compound 1064] and `COc1ccc(NC(=O)c2ccc(C(C)(C)C)nc2)cc1S(=O)(=O)Nc1c(C)cccc1C` [Compound 1052] fall in the same range of EC50: 20 to 100 µM for the first, 20 to 100 µM for the second.

Compound `COc1ccc(NC(=O)c2sc(-c3cccs3)nc2C)cc1S(=O)(=O)Nc1c(C)cccc1C` [Compound 1156] has an EC50 of under 10 µM.

Same assay, conditions: read-out: ADP GLO DRC: Mean Emax

First: COc1ccc(NC(=O)c2ccc3cn(C)nc3c2)cc1S(=O)(=O)Nc1c(C)cccc1C [Compound 1362]
Second: COc1ccc(NC(=O)c2ccc3nccnc3c2)cc1S(=O)(=O)Nc1c(C)cccc1C [Compound 1063]
The Emax of the first is lower: 200 to 300% for the first, over 300% for the second.

First: Cc1c(Br)cncc1C(=O)Nc1ccc(F)c(S(=O)(=O)Nc2ccc(Cl)cc2)c1 [Compound 826]
Second: Cc1noc(C(C)C)c1C(=O)Nc1ccc(F)c(S(=O)(=O)Nc2ccc(Cl)cc2)c1 [Compound 751]
The Emax of the first is higher: 200 to 300% for the first, 160 to 199% for the second.

First: COc1ccc(NC(=O)c2nn(C)c3c2CCC3)cc1S(=O)(=O)Nc1c(C)cccc1C [Compound 1010]
Second: COc1ccc(NC(=O)c2cn(C)nc2C(F)F)cc1S(=O)(=O)Nc1c(C)cccc1C [Compound 1074]
The Emax of the first is higher: 200 to 300% for the first, 160 to 199% for the second.

First: COc1ccc(NC(=O)c2cnc(-c3ccccc3C)[nH]2)cc1S(=O)(=O)Nc1ccc(Cl)cc1 [Compound 1971]
Second: COc1ccc(NC(=O)c2cnc(-c3cccnc3OC)[nH]2)cc1S(=O)(=O)Nc1ccc(Cl)cc1 [Compound 1951]
The Emax of the first is higher: 200 to 300% for the first, 160 to 199% for the second.

`COc1ccc(NC(=O)c2cc(F)ccc2OC(F)(F)F)cc1S(=O)(=O)Nc1c(C)cccc1C` [Compound 1092] and `COc1cnc(Cl)c(C(=O)Nc2ccc(OC)c(S(=O)(=O)Nc3c(C)cccc3C)c2)c1` [Compound 1072] fall in the same range of Emax: 160 to 199% for the first, 160 to 199% for the second.

First: COc1ccc(NC(=O)c2ncc(-c3ccccc3)o2)cc1S(=O)(=O)Nc1ccc(C)nc1F [Compound 1684]
Second: COc1ccc(NC(=O)c2ccn(-c3ccccc3)n2)cc1S(=O)(=O)Nc1c(C)cccc1C [Compound 1071]
The Emax of the first is lower: 123 to 159% for the first, 200 to 300% for the second.

First: COc1ccc(NC(=O)c2cccnc2-c2ccccc2C)cc1S(=O)(=O)Nc1c(C)cccc1C [Compound 1053]
Second: COc1ccc(NC(=O)c2cccnc2-c2cc(F)cc(F)c2)cc1S(=O)(=O)Nc1c(C)cccc1C [Compound 1096]
The Emax of the first is higher: 160 to 199% for the first, 123 to 159% for the second.

`COc1ccc(NC(=O)c2cn(Cc3ccccc3)nn2)cc1S(=O)(=O)Nc1c(C)cccc1C` [Compound 1265] and `COc1ccc(NC(=O)c2ccc3ncccc3c2)cc1S(=O)(=O)Nc1c(C)cccc1C` [Compound 1241] fall in the same range of Emax: 200 to 300% for the first, 200 to 300% for the second.

First: COc1ccc(NC(=O)c2cncc(Br)c2C)cc1S(=O)(=O)Nc1c(C)cccc1C [Compound 1107]
Second: COc1ccc(NC(=O)c2cnoc2C2CC2)cc1S(=O)(=O)Nc1c(C)cccc1C [Compound 1160]
The Emax of the first is higher: 200 to 300% for the first, 160 to 199% for the second.

First: COc1ccc(NC(=O)c2csc(-c3ccccc3)n2)cc1S(=O)(=O)N(CC(O)CO)c1ccc(Cl)cc1 (centres unmarked) [Compound 2404]
Second: COc1ccc(NC(=O)c2cnn(-c3ccc(Cl)cc3)c2C)cc1S(=O)(=O)Nc1c(C)cccc1C [Compound 1110]
The Emax of the first is lower: 123 to 159% for the first, 160 to 199% for the second.

Compared with `COc1ccc(NC(=O)c2cccc(N3CCCC3=O)c2)cc1S(=O)(=O)Nc1c(C)cccc1C` [Compound 1123], `COc1ccc(NC(=O)c2ccc3ncsc3c2)cc1S(=O)(=O)Nc1c(C)cccc1C` [Compound 1233] is lower in Emax: 200 to 300% for the first, 160 to 199% for the second.

First: COc1ccc(NC(=O)c2cnc3ccoc3c2)cc1S(=O)(=O)Nc1c(C)cccc1C [Compound 1064]
Second: COc1ccc(NC(=O)c2ccc(C(C)(C)C)nc2)cc1S(=O)(=O)Nc1c(C)cccc1C [Compound 1052]
The Emax of the first is higher: 200 to 300% for the first, 160 to 199% for the second.

Compound `COc1ccc(NC(=O)c2sc(-c3cccs3)nc2C)cc1S(=O)(=O)Nc1c(C)cccc1C` [Compound 1156] has an Emax of 123 to 159%.
